{"source": "patent US20190185865A1", "about": "“USE OF PROKARYOTIC TRANSCRIPTIONAL ACTIVATORS AS METABOLITE BIOSENSORS IN EUKARYOTIC CELLS” (Danmarks Tekniske Universitet, priority 2016, published 2019)", "key": {"[1]": {"assay": "Solubility in growth medium", "format": "physicochemical", "conditions": "aqueous buffer, read-out: highest soluble CCM concentration"}, "yeast cells": {"system": "yeast cells", "assay": "Growth of yeast cells in liquid medium containing CCM", "format": "cell-based, Saccharomyces cerevisiae", "conditions": "pH 4.5", "procedure": "FIG. 9 (a) Uptake of cis,cis-muconic acid (CCM) at pH 4.5 by S. cerevisiae cells following 24 h of growth. (b) Representative growth curves of yeast cells in liquid medium containing different concentrations of CCM. OD values were determined at 1-h intervals over 25-h period. For both (a) and (b) data display means±s.d. from three (n=3) biological replicate cultivations."}}, "note": "Values joined by “and” are separate entries in the source; they are usually repeats but may differ in a detail not shown here. Equal entries are not always repeated.", "data": [{"smiles": "O=C(O)/C=C\\C=C/C(=O)O", "note": "[CCM, cis, cis-muconic acid]", "values": [{"measurement": "solubility", "setting": "[1]", "result": "1400 µM and 200 µg/mL"}, {"measurement": "growth of yeast in presence of CCM", "setting": "yeast cells", "result": "without any growth defects"}]}]}
